# In patent publication US6608083B1, “Quinoline derivatives(2)” (SmithKline Beecham Farmaceutici S.p.A, priority 1994, dated 2003):
# Structures can show the parent of a compound that is named as a salt.
# Test system: not given
# Assay: not given
row,Compound,melting point
1,COC(=O)C(NC(=O)c1cc(-c2ccccc2)nc2c(OC(C)=O)cccc12)c1ccccc1 (stereo not shown) [Example 80],193 to 194 °C
2,COC(=O)C(NC(=O)c1cc(-c2cc[nH]c2)nc2ccccc12)c1ccccc1 (stereo not shown) [Example 66],202 to 204 °C
3,COC(=O)C(NC(=O)c1cc(-c2ccccc2)nc2ccc(C)cc12)c1ccccc1 (stereo not shown) [Example 33],179 to 181 °C
4,COC(=O)C(NC(=O)c1cc(-c2ccc(Cl)cc2Cl)nc2ccccc12)c1ccccc1 (stereo not shown) [Example 82],142 to 143 °C
5,O=C(NC(c1ccccc1)C(F)(F)F)c1cc(-c2ccccc2)nc2ccccc12 (stereo not shown) [Example 46],180 to 181 °C
6,CCC(NC(=O)c1cc(-c2ccccc2)nc2ccccc12)c1ccc(C)cc1 (stereo not shown) [Example 65],160 to 162 °C
7,CCC(NC(=O)c1c(-c2ccccc2)c(-c2ccccc2)nc2ccccc12)c1ccccc1 (stereo not shown) [Example 25],198 to 200 °C
8,CCc1c(-c2ccccc2)nc2ccccc2c1C(=O)NC(CC)c1ccccc1 (stereo not shown) [Example 48],118 to 120 °C
9,CCC(NC(=O)c1cc(-c2ccccc2)nc2ccccc12)c1ccc(Cl)cc1 (stereo not shown) [Example 49],177 to 178 °C
10,COC(=O)C(NC(=O)c1cc(-c2cccc(Cl)c2)nc2ccccc12)c1ccccc1 (stereo not shown) [Example 77],161 to 163 °C
11,COC(=O)C(NC(=O)c1c(O)c(-c2ccccc2)nc2ccccc12)c1ccccc1 (stereo not shown) [Example 87],125 to 127 °C
12,COC(=O)[C@H](NC(=O)c1cc(-c2ccccc2)nc2ccccc12)c1ccc(O)cc1.Cl,140 °C (dec.)
13,O=C(NC(C(=O)O)c1ccccc1)c1cc(-c2ccccc2)nc2ccccc12 (stereo not shown) (as salt: HCl) [Example 92],203 to 205 °C
14,COC(=O)C(NC(=O)c1c2c(nc3ccccc13)-c1ccccc1CC2)c1ccccc1 (stereo not shown) [Example 52],217 to 219 °C
15,COC(=O)C(NC(=O)c1cc(-c2ccccc2C)nc2ccccc12)c1ccccc1 (stereo not shown) [Example 59],180 to 182 °C
16,COC(=O)C(NC(=O)c1cc(-c2ccccc2)nc2ccc(OC)cc12)c1ccccc1 (stereo not shown) [Example 43],209 to 211 °C
17,COC(=O)C(NC(=O)c1cc(-c2ccc(Cl)c(Cl)c2)nc2ccccc12)c1ccccc1 (stereo not shown) [Example 67],164 to 165 °C
18,CCC(NC(=O)c1cc(-c2ccccc2)nc2ccccc12)c1ccc(Cl)c(Cl)c1 (stereo not shown) [Example 27],193 to 194 °C
19,CCCCc1c(-c2ccccc2)nc2ccccc2c1C(=O)NC(CC)c1ccccc1 (stereo not shown) [Example 19],147 to 150 °C
20,O=C(NC(Cc1ccccc1)c1ccccc1)c1cc(-c2ccccc2)nc2ccccc12 (stereo not shown) [Example 45],194 to 196 °C
21,CCC(NC(=O)c1c(Cl)c(-c2ccccc2)nc2ccccc12)c1ccccc1 (stereo not shown) [Example 70],137 to 139 °C
22,COC(=O)C(NC(=O)c1cc(-c2ccccc2OC)nc2ccccc12)c1ccccc1 (stereo not shown) [Example 24],124 to 125 °C

row,Compound,melting point
1,O=C(NC(CO)c1ccccc1)c1cc(-c2ccccc2)nc2ccccc12 (stereo not shown) [Example 28],117 to 119 °C
2,CCc1c(-c2ccccc2)nc2ccccc2c1C(=O)NC(CC)c1ccccc1 (stereo not shown) [Example 38],158 to 159 °C
3,COC(=O)C(NC(=O)c1c2c(nc3ccccc13)-c1ccccc1CCC2)c1ccccc1 (stereo not shown) [Example 20],186 to 188 °C
4,COC(=O)C(NC(=O)c1c(C)c(-c2ccccc2)nc2ccccc12)c1ccccc1 (stereo not shown) [Example 30],180 to 181 °C
5,COC(=O)C(NC(=O)c1cc(-c2ccccc2)nc2ccc(Cl)cc12)c1ccccc1 (stereo not shown) [Example 35],197 to 199 °C
6,COC(=O)C(NC(=O)c1cc(-c2ccc(C)cc2)nc2ccccc12)c1ccccc1 (stereo not shown) [Example 57],172 to 174 °C
7,COC(=O)C(NC(=O)c1cc(-c2ccc3c(c2)OCO3)nc2ccccc12)c1ccccc1 (stereo not shown) [Example 63],186 to 187 °C
8,COC(=O)C(NC(=O)c1cc(-c2ccsc2)nc2ccccc12)c1ccccc1 (stereo not shown) [Example 51],169 to 171 °C
9,O=C(NC1(c2ccccc2)CCCC1)c1cc(-c2ccccc2)nc2ccccc12 [Example 61],164 to 165 °C
10,CCCC(NC(=O)c1cc(-c2ccccc2)nc2ccccc12)c1ccccc1 (stereo not shown) [Example 37],149 to 150 °C
11,CCC(NC(=O)c1c(N2C(=O)c3ccccc3C2=O)c(-c2ccccc2)nc2ccccc12)c1ccccc1 (stereo not shown) [Example 39],201 to 202 °C
12,CCC(NC(=O)c1c(Br)c(-c2ccccc2)nc2ccccc12)c1ccccc1 (stereo not shown) [Example 71],119 to 122 °C
13,CCCCC(NC(=O)c1cc(-c2ccccc2)nc2ccccc12)c1ccccc1 (stereo not shown) [Example 56],155 to 156 °C
14,COCC(NC(=O)c1cc(-c2ccccc2)nc2ccccc12)c1ccccc1 (stereo not shown) [Example 34],144 to 145 °C
15,CN(C)CC(NC(=O)c1cc(-c2ccccc2)nc2ccccc12)c1ccccc1 (stereo not shown) [Example 88],133 to 135 °C
16,COC(=O)C(NC(=O)c1cc(-c2ccc(O)cc2)nc2ccccc12)c1ccccc1 (stereo not shown) [Example 62],226 to 227 °C
17,COC(=O)C(NC(=O)c1cc(-c2ccc(OC)cc2)nc2ccccc12)c1ccccc1 (stereo not shown) [Example 60],182 to 183 °C
18,CN(C)C(=O)C(NC(=O)c1cc(-c2ccccc2)nc2ccccc12)c1ccccc1 (stereo not shown) [Example 89],219 to 221 °C
19,NC(=O)C(NC(=O)c1cc(-c2ccccc2)nc2ccccc12)c1ccccc1 (stereo not shown) [Example 90],237 to 238 °C
20,COC(=O)C(NC(=O)c1cc(-c2ccccc2)nc2cc(Cl)ccc12)c1ccccc1 (stereo not shown) [Example 32],180 to 183 °C
21,CCC(NC(=O)c1c(OC)c(-c2ccccc2)nc2ccccc12)c1ccccc1 (stereo not shown) [Example 18],163 to 165 °C
22,COC(=O)C(NC(=O)c1cc(-c2cc3ccccc3o2)nc2ccccc12)c1ccccc1 (stereo not shown) [Example 44],240 to 241 °C

row,Compound,melting point
1,COC(=O)C(NC(=O)c1cc(-c2ccccc2F)nc2ccccc12)c1ccccc1 (stereo not shown) [Example 26],146 to 147 °C
2,O=C(NC(C(=O)N1CCCC1)c1ccccc1)c1cc(-c2ccccc2)nc2ccccc12 (stereo not shown) [Example 91],199 to 200 °C
3,COC(=O)C(NC(=O)c1cc(-c2ccccc2)nc2c(O)cccc12)c1ccccc1 (stereo not shown) [Example 81],178 to 180 °C
4,COC(=O)C(c1ccccc1)N(C)C(=O)c1cc(-c2ccccc2)nc2ccccc12 (stereo not shown) [Example 50],128 to 129 °C
5,CCC(NC(=O)c1c(C)c(-c2ccc(Br)cc2)nc2ccc(Br)cc12)c1ccccc1 (stereo not shown) [Example 41],230 to 231 °C
6,COC(=O)C(NC(=O)c1cc(-c2ccccc2Cl)nc2ccccc12)c1ccccc1 (stereo not shown) [Example 78],175 to 178 °C
7,NCC(NC(=O)c1cc(-c2ccccc2)nc2ccccc12)c1ccccc1 (stereo not shown) [Example 68],139 to 141 °C
8,O=C(NC(c1ccccc1)c1ccccc1)c1cc(-c2ccccc2)nc2ccccc12 [Example 84],182 to 184 °C
9,CC(C)(NC(=O)c1cc(-c2ccccc2)nc2ccccc12)c1ccccc1 [Example 64],173 to 174 °C
10,COC(=O)C(NC(=O)c1cc(-c2ccccc2)nc2ccccc12)C1=CCC=CC1 (stereo not shown) [Example 16],120 to 122 °C
11,CCc1c(-c2ccccc2)nc2ccccc2c1C(=O)NC(C(=O)OC)c1ccccc1 (stereo not shown) [Example 36],156 to 157 °C
12,COC(=O)C(NC(=O)c1cc(-c2ccc[nH]2)nc2ccccc12)c1ccccc1 (stereo not shown) [Example 53],181 to 182 °C
13,COC(=O)C(NC(=O)c1cc(-c2nccs2)nc2ccccc12)c1ccccc1 (stereo not shown) [Example 54],209 to 211 °C
14,CCC(NC(=O)c1c(OC)c(-c2ccccc2)nc2ccccc12)c1ccccc1 (stereo not shown) [Example 47],132 to 134 °C
15,COC(=O)C(NC(=O)c1cc(C2CCCCC2)nc2ccccc12)c1ccccc1 (stereo not shown) [Example 76],151 to 153 °C
16,CCCc1c(-c2ccccc2)nc2ccccc2c1C(=O)NC(CC)c1ccccc1 (stereo not shown) [Example 40],149 to 151 °C
17,CC(C)C(NC(=O)c1cc(-c2ccccc2)nc2ccccc12)c1ccccc1 (stereo not shown) [Example 72],165 to 166 °C
18,CCC(NC(=O)c1c(C)c(-c2ccccc2)nc2ccc(Br)cc12)c1ccccc1 (stereo not shown) [Example 42],179 to 180 °C
19,"C[C@H](O)[C@H](NC(=O)c1cc(-c2ccccc2)nc2ccccc12)c1ccccc1 [Example 17, (R,S)-N-[α-(1-hydroxyethyl)benzyl]-2-phenylquinoline-4-carboxamide]",204 to 205 °C
20,COC(=O)C(NC(=O)c1cc(-c2ccccc2)nc2ccc(F)cc12)c1ccccc1 (stereo not shown) [Example 75],174 to 176 °C

# Target: T1, NK3 receptor (Cavia porcellus, UniProt P30098)
# T1 sequence (P30098 1-440): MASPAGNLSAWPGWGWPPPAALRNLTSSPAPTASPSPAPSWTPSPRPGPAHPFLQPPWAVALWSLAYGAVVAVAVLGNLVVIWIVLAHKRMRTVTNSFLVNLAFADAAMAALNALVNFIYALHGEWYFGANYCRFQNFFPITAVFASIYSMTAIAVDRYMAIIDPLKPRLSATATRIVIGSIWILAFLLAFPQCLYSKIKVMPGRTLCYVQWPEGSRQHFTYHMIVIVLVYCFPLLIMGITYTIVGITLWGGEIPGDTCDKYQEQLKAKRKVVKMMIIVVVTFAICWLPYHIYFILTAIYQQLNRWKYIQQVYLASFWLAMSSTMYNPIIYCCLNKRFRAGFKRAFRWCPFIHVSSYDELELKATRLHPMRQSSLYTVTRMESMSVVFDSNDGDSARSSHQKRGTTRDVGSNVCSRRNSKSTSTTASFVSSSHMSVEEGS
# Assay: Binding: displacement of [3H]-Senktide / [125I]-[Me-Phe7]-NKB, guinea-pig cortex membranes
# Description: The activity of the compounds of the present invention, as NK3 ligands, is determined by their ability to inhibit the binding of the radiolabelled NK3 ligands, [^125I]-[Me-Phe^7]-NKB or [^3H]-Senktide, to guinea-pig and human NK3 receptors (Renzetti et al, 1991, Neuropeptide, 18, 104-114; Buell et al, 1992, FEBS, 299(1), 90-95; Chung et al, 1994, Biochem. Biophys. Res. Commun., 198(3), 967-972). […] Binding assays provide for each compound tested a mean IC50 value of 2-5 separate experiments performed in duplicate or triplicate. […] The NK3-antagonist activity of the compounds of the present invention is determined by their ability to inhibit senktide-induced contraction of the guinea-pig ileum (Maggi et al, 1990, Br. J. PharmacoL, 101, 996-1000) and rabbit isolated iris sphincter muscle (Hall et al., 1991, Eur. J. PharmacoL, 199, 9-14) and human NK3 receptors-mediated Ca^++ mobilization (Mochizuki et al, 1994, J. Bio. Chem., 269, 9651-9658). Guinea-pig and rabbit in-vitro functional assays provide for each compound tested a mean KB value of 3-8 separate experiments, where KB is the concentration of the individual compound required to produce a 2-fold rightward shift in the concentration-response curve of senktide. Human receptor functional assay allows the determination of the concentration of the individual compound required to reduce by 50% (IC50 values) the Ca^++ mobilization induced by the agonist NKB.
row,Compound,Ki
1,CCc1c(-c2ccccc2)nc2ccccc2c1C(=O)NC(CC)c1ccccc1 (stereo not shown) [Example 48],12 nM
2,CCC(NC(=O)c1c(C)c(-c2ccccc2)nc2ccccc12)c1ccccc1 (stereo not shown) [Example 22],5.6 nM
3,CCC(NC(=O)c1c(OC)c(-c2ccccc2)nc2ccccc12)c1ccccc1 (stereo not shown) [Example 47],8.8 nM
